# Entries after “also recorded” stand apart in the source; their conditions may differ.
# How the values were obtained:
# [1] = test system: human tumor Tregs (TI-Tregs); experiment: viability of sorted tumor Tregs vs peripheral Tregs at peripheral-Treg EC20 dose; format: cell-based; conditions: at peripheral-Treg EC20 (IC20) dose; TI-Tregs from clear cell renal carcinoma expanded ex vivo
# Experimental: To reduce study complexity and cost, the inventors first assessed the effect of a library of 1,554 FDA-approved and investigational compounds on human-derived P-Treg viability at a single, relatively large concentration (5 μM). For this screen, human P-Tregs were flow sorted, expanded ex vivo, and drug treated in a 96-well plate format (FIG. 6A). The inventors then selected 195 compounds that inhibited P-Treg viability ≥60% (FIG. 6B). To further reduce the number of candidate drugs, the inventors then generated 10-point drug response curves to identify the 48 h EC20 concentration of the 195 compounds, then selected a repertoire of 86 compounds with the lowest EC20 for efficient perturbational profile analysis in a 96-well format, when considering inclusion of vehicle controls (DMSO). As previously reported (Bush et al., 2017; Douglass et al., 2020), the 48 h EC20 (maximum sublethal) concentration was selected to effectively assess the 24 h drug mechanism of action, while reducing confounding effects arising from activation of cell stress or death pathways. Finally, the EC20 concentration of each compound was then used to perturb TI-Tregs flow-sorted from a chemo-naïve human clear cell carcinoma specimen and expanded ex vivo, into 96-well plates, followed by RNA-seq profiling using the fully automated PLATE-Seq technology (Bush et al., 2017; Douglass et al., 2020). Viability, as well as perturbational RNA-seq profiles of TI-Tregs were collected (FIGS. 6C-D). […]
# [2] = test system: TI-Treg MR proteins (17-MR protein signature); experiment: PLATE-Seq perturbational RNA-seq of TI-Tregs with VIPER / OncoTreat analysis; format: cell-based, human; conditions: for patient-by-patient inhibition of TI-Treg vs P-Treg MR activity (OncoTreat): individual TI- vs. P-Treg signatures of all 36 patients
# Experimental: To reduce study complexity and cost, the inventors first assessed the effect of a library of 1,554 FDA-approved and investigational compounds on human-derived P-Treg viability at a single, relatively large concentration (5 μM). For this screen, human P-Tregs were flow sorted, expanded ex vivo, and drug treated in a 96-well plate format (FIG. 6A). The inventors then selected 195 compounds that inhibited P-Treg viability ≥60% (FIG. 6B). To further reduce the number of candidate drugs, the inventors then generated 10-point drug response curves to identify the 48 h EC20 concentration of the 195 compounds, then selected a repertoire of 86 compounds with the lowest EC20 for efficient perturbational profile analysis in a 96-well format, when considering inclusion of vehicle controls (DMSO). As previously reported (Bush et al., 2017; Douglass et al., 2020), the 48 h EC20 (maximum sublethal) concentration was selected to effectively assess the 24 h drug mechanism of action, while reducing confounding effects arising from activation of cell stress or death pathways. Finally, the EC20 concentration of each compound was then used to perturb TI-Tregs flow-sorted from a chemo-naïve human clear cell carcinoma specimen and expanded ex vivo, into 96-well plates, followed by RNA-seq profiling using the fully automated PLATE-Seq technology (Bush et al., 2017; Douglass et al., 2020). Viability, as well as perturbational RNA-seq profiles of TI-Tregs were collected (FIGS. 6C-D). By using the differential protein activity signature in drug- vs. vehicle control-treated TI-Tregs, we identified the compounds capable of inducing the most statistically significant inactivation of TI-Treg-specific MR proteins (OncoTreat algorithm (Alvarez et al., 2018). From this analysis, 32 compounds were nominated as statistically significant inhibitors of the 17-MR protein signature (FIG. 7B), seven of which preferentially depleted TI-Treg vs. P-Treg viability in vitro (FIGS. 6C-D), and which were also found to inhibit patient-by-patient TI-Treg vs P-Treg MRs across all tumor types and nearly all patients (FIG. 6E).
# Wells of drug-treated Tregs were RNA-Sequenced and each normalized with viperSignature against the internal DMSO-control wells on the same PLATE. VIPER was run on the normalized gene expression using the T-cell ARACNe network inferred from sorted bulk-RNA-Sequencing clinical data. Drugs were ranked on their overall inversion across patients of the 17-gene Master Regulator signature previously identified and validated by CRISPR (FIG. 7B), as well as on their patient-by-patient inversion of Tumor-Treg vs Peripheral-Treg protein activity signature by OncoTreat (FIG. 6E).
# [3] = test system: MC38 syngeneic tumor model; experiment: MC38 tumor growth and survival in immune-competent C57BL/6J mice; format: in vivo
# Experimental: 10 C57BL/6J mice per treatment arm were implanted with subcutaneous MC38 tumor cells. Treatment was initiated after 12 days of initial tumor growth, at which point mice were monitored for tumor volume until exceeding 1000 mm^3 or ulceration exceeding a diameter of 5 mm. […] Floxuridine and triapine were IP daily from day 12-18 at 1 mg/kg and 5 mg/kg, respectively, also reflecting 1/10th the standard murine dose. Mice receiving anti-PD-1 were administered anti-PD-1 IP on days 12, 15, and 18.
# [4] = test system: MC38 tumors; experiment: MC38 tumor growth and survival in immune-deficient NSG mice; format: in vivo
# Experimental: To assess whether low-dose gemcitabine effects were immune-mediated, we performed parallel dose titrations in immune-competent C57BL/6J mice and severely immune-deficient NSG (NOD.Cg-Prkdc^scid Il2rg^tm1Wj1/SzJ) mice lacking both innate and adaptive immunity.
# To test whether immune-dependent activity could be observed in this range of concentrations, we dosed cohorts of mice with 1-10 mg/kg gemcitabine, with an additional cohort of C57BL/6J mice receiving anti-PD-1 in combination.
# To further assess the doses at which gemcitabine inhibits tumor growth and the immune-mediated effects of gemcitabine, the inventors performed parallel dose titrations of Gem in immune-competent C57BL/6J mice and immune-deficient NSG (NOD.Cg-Prkdc^scid Il2rg^tm1Wjl/SzJ) mice, administering doses ranging from 0.12 mg/kg up to 120 mg/kg as shown in FIGS. 4D-E. At least 5 mice were treated per treatment arm. Doses were administered IP on days 12, 15, and 18, and treatment response was assessed by and Kaplan-Meier test (FIG. 8E).
# [5] = test system: TRC3 cluster Tregs (enriched for TI-Treg MRs); experiment: scRNA-seq of MC38 tumor- and spleen-derived Tregs after gemcitabine; format: in vivo, FoxP3Yfp-Cre mice; conditions: 24 hours after single 12 mg/kg dose
SMILES,differential TI-Treg vs. P-Treg viability reduction (toxicity) [1],patient-by-patient inhibition of TI-Treg vs P-Treg MR activity (OncoTreat) [2],"tumor growth inhibition ([3]; floxuridine 1 mg/kg IP daily day 12-18, alone or with anti-PD-1)","inhibition (down-regulation) of the 17-MR TI-Treg protein activity signature ([2]; TI-Tregs treated at EC20, 24 h, drug vs DMSO, VIPER protein activity)","efficacy in dose titration ([3]; between 12 mg/kg and 1.2 mg/kg, C57BL/6J)",dose range found to be immunogenic ([3]; dosed Q3D),"advantage in C57BL/6 vs NSG mice ([3]; gemcitabine 1.2 mg/kg, p=0.09)","survival C57BL/6J vs. NSG ([3]; gemcitabine 10 mg/kg, p=0.253)","tumor growth kinetics vs vehicle ([3]; gemcitabine 12 mg/kg IP days 12, 15, 18, late stage MC38, p=0.003)","survival vs vehicle ([3]; gemcitabine 12 mg/kg IP days 12, 15, 18, late stage MC38, p=0.006)","tumor growth relative to vehicle control ([3]; gemcitabine 120 mg/kg, C57BL/6J, p<0.001 by Cox regression)","difference between C57BL/6J and NSG strains ([3]; gemcitabine 120 mg/kg, p=0.19)","efficacy in dose titration ([4]; between 12 mg/kg and 1.2 mg/kg, NSG)","activity in NSG mice ([4]; gemcitabine 3 mg/kg, p=0.84)","tumor growth relative to vehicle control ([4]; gemcitabine 120 mg/kg, NSG, p<0.001 by Cox regression)",TRC1 occupancy [5],change of TRC3 occupancy in spleen population ([5]; spleen),"TRC3 cluster frequency among TI-Tregs ([5]; tumor, vehicle 30.1%, p=1.51e-20)","tumor growth inhibition ([3]; triapine 5 mg/kg IP daily day 12-18, alone or with anti-PD-1)"
O=c1[nH]c(=O)n([C@H]2C[C@H](O)[C@@H](CO)O2)cc1F [floxuridine],among the top 6 inducing the most significant differential TI- vs. P-Treg viability reduction,among the seven most significant TI-Treg MR activity inhibitors,gemcitabine was the only treatment found to significantly inhibit tumor growth,,,,,,,,,,,,,,,,
Nc1ccn([C@@H]2O[C@H](CO)[C@@H](O)C2(F)F)c(=O)n1 [gemcitabine],preferential cytotoxic capacity against TI-Tregs; also recorded: preferentially toxic to TI-Tregs; also recorded: among the top 6 inducing the most significant differential TI- vs. P-Treg viability reduction,among the seven most significant TI-Treg MR activity inhibitors,,inhibits transcriptional activity of TI-Treg MRs,efficacy was lost,3 to 10 mg/kg,trending but non-significant advantage,trending survival advantage,significantly inhibit tumor growth; also recorded: significant reduction in growth kinetics,prolongation of survival,inhibited tumor growth,no significant difference,efficacy was lost,lack any activity,inhibited tumor growth,proportional increase,virtually no change,14.9%,
NC(=S)N/N=C/c1ncccc1N [triapine],among the top 6 inducing the most significant differential TI- vs. P-Treg viability reduction,among the seven most significant TI-Treg MR activity inhibitors,,,,,,,,,,,,,,,,,gemcitabine was the only treatment found to significantly inhibit tumor growth
